Source: PubChem BioAssay AID179 (DTP/NCI, 2004)
Activity calls are given as the source filed them.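 Rule for the calls: active = compounds giving half or more protection of infected cells from virus-caused growth loss, again on retest; inactive = the rest.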 Where a SMILES comes first, the peptide text is derived from it. [ ]: non-standard residue; d: D form. The star is where a group is joined. Phe(4-NO2) = N[CH](Cc1ccc([N+](=O)[O-])cc1)C(=O)O; Boc = CC(C)(C)OC(=O)*

Tested on: CEM cells HIV-1 protection, formazan growth assay
Assay: NCI AIDS Antiviral Assay
Conditions: for IC50: measured here: growth of uninfected CEM cells
Summary of the method: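 Human CEM cells, uninfected and HIV-1-infected, received five drug concentrations, and growth was read by soluble formazan assay. Compounds giving at least 50% protection were retested; reproducible 100% protection defined confirmed active.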

Row | SMILES | EC50 | outcome | IC50
1 | COc1ccc(/C=C2/N=C(N/N=C\C(O)C(O)C(O)CO)NC2=O)cc1 (configuration not stated) | > 200 µM | inactive | 79.4 µM
2 | Clc1ccc2cccc3c2c1C1OC3c2ccccc21 (configuration not stated) | – | inactive | –
3 | CC(=O)OC1CC2OC2(C)C2[C@H](O)C34O[C@@]3(C)C(=O)O[C@H]4/C=C(/C)C[C@H](OC(C)=O)[C@H](OC(C)=O)[C@@]12C (some centres not stated) | > 123 µM | – | 75.9 µM
4 | N#C/C(=C1\SC(=O)CN1c1ccc(Cl)cc1)c1nc2ccccc2o1 | > 200 µM | – | 34.7 µM
5 | CC1=NN(c2nc(N)nc(C/C(N)=N/O)n2)C(C)(C)C1 | > 200 µM | – | > 200 µM
6 | NC1=C(c2nc(-c3cc4ccccc4oc3=O)cs2)C(c2ccco2)c2c(c3ccccc3oc2=O)O1 (configuration not stated) | > 100 µM | – | > 100 µM
7 | COc1cc2c(cc1OC)C(Cc1ccccc1NC(=O)c1ccc(C(=O)Nc3ccccc3CC3c4cc(OC)c(OC)cc4CCN3C)cc1)N(C)CC2 (configuration not stated) | – | inactive | –
8 | OC1CC(c2ccccc2)Oc2ccccc21 (configuration not stated) | – | inactive | –
9 | CCOC(=O)CCC(NC(=O)C(Cc1ccc([N+](=O)[O-])cc1)NC(=O)OC(C)(C)C)C(=O)NC(CCC(=O)OCC)C(=O)OCC (configuration not stated) (Boc-[Phe(4-NO2)]-Glu(OEt)-Glu(OEt)-OEt; configuration not given here) | > 200 µM | – | 9.77 µM
10 | Cc1nc(C(N)=S)sc1C(/C=C/c1ccc(Cl)c(Cl)c1)=N/NC(C)(C)C | > 117 µM | – | > 117 µM
11 | C/C=C/[C@@H](C(=O)OC)N1C(=O)c2ccccc2[C@H]1O | > 200 µM | – | > 200 µM
12 | Cn1c(=O)oc(=O)c2ccccc21 | – | inactive | –
13 | O=[N+]([O-])c1ccc(S(=O)(=O)NN=C2CCCCC2)cc1 | > 316 µM | – | 178 µM
14 | O=C(NC1=Nc2c(ncn2COCCO)S(=O)(=O)[N-]1)c1ccccc1.[Ag+] | > 200 µM | – | 3.55 µM
15 | OC(c1ccccc1)C1CC2C=CC1C2 (configuration not stated) | – | inactive | –
16 | CCOC(=O)/C(=C\c1ccc(Cl)cc1)C(C)=O | > 372 µM | – | 64.6 µM
17 | Cc1ccc(/C=C2/Sc3scc(-c4ccccc4)[n+]3C2=O)cc1 | > 200 µM | – | 47.9 µM
18 | NC(=O)COC(=O)c1c(Cl)nc2sccn12 | > 347 µM | – | > 347 µM
19 | CC(C)(C)[Si](C)(C)OC1/C(=C/C#N)C(n2ccc(=O)[nH]c2=O)OC1CO (configuration not stated) | > 200 µM | – | > 200 µM
20 | CCOC(=O)c1c(-c2[nH]c(C(=O)OCc3ccccc3)c(C)c2C(=O)OCC)[nH]c(C(=O)OCc2ccccc2)c1C | – | inactive | –
21 | N=C(N)C1CN(CCCCCCCCCCN2CC(C(=N)N)C(=O)NC2=O)C(=O)NC1=O (configuration not stated) | > 200 µM | – | > 200 µM

Row | SMILES | EC50 | outcome | IC50
22 | CC(=O)OC[C@@H](OC(C)=O)[C@@H](OC(C)=O)[C@H]1OC[C@@H]2C[C@H]([C@H]1OC(C)=O)N(Cc1ccccc1)O2 | 93.3 µM | – | > 200 µM
23 | CO/N=C1/c2sccc2[C@H](NC(=O)C(F)(F)F)[C@@H]1O | > 200 µM | – | > 200 µM
24 | CC(C)COP(=O)(OCC(C)C)C(NS(=O)(=O)c1ccccc1)(C(F)(F)F)C(F)(F)F | – | inactive | –
25 | Cc1c(CCCl)c(=O)n2c([nH]c3ccccc32)c1C#N | > 200 µM | – | 7.59 µM
26 | O=Nc1cc(S(=O)(=O)O)c2ccccc2c1O | > 200 µM | – | > 200 µM
27 | C=CCOC1CC(n2cnc3c(N)ncnc32)OC1CO (configuration not stated) | > 200 µM | – | > 200 µM
28 | CCOC(=O)C12C3C(=O)N(CC)C(=O)C3ON1OC1C(=O)N(CC)C(=O)C12 (configuration not stated) | > 661 µM | – | 81.3 µM
29 | CC1CC/C(=C\c2ccc(Cl)cc2)C(=O)/C1=C\c1ccc(Cl)cc1 (configuration not stated) | > 200 µM | – | 42.7 µM
30 | CC[C@]1(Cc2ccc(OC)c(OC)c2)[C@@H]2C[C@@H](C3OCCO3)ON2O[C@H](OC2CCCC2(c2ccccc2)c2ccccc2)[C@@H]1OC(C)=O (some centres not stated) | > 200 µM | – | 21.9 µM
31 | CN(C(=O)c1ccc(Cl)cc1)C(=S)N1CCN(c2ccccc2)CC1 | > 19.5 µM | – | > 19.5 µM
32 | Clc1c(Cl)c(Cl)c2nn(C3CCCO3)nc2c1Cl (configuration not stated) | > 200 µM | – | 39.8 µM
33 | CCCN(CCC)/N=C/c1c2c(O)c3c(O)c(C)c4c(c3c1O)C(=O)C(C)(O/C=C/C(OC)C(C)C(OC(C)=O)C(C)C(O)C(C)C(O)C(C)/C=C/C=C(C)C(=O)N2)O4 (configuration not stated) | > 200 µM | – | 3.47 µM
34 | N#Cc1c(Cl)c2ccccc2n2c1nc1ccccc12 | > 151 µM | – | 8.32 µM
35 | COc1ccc(OC)c(CCCC(=O)O)c1 | 0.0631 µM | – | > 200 µM
36 | O=C(OCCCl)c1ccccc1NC(=O)N1CCOCC1 | – | inactive | –
37 | Cc1ccc(S(=O)(=O)N/N=C(/c2nc3ccc([N+](=O)[O-])cc3[nH]c2=O)C(O)c2ccc(C(O)/C(=N\NS(=O)(=O)c3ccc(C)cc3)c3nc4ccc([N+](=O)[O-])cc4[nH]c3=O)cc2)cc1 (configuration not stated) | > 39.8 µM | – | > 39.8 µM
38 | Cc1cn(C2OC(C)(CO)C(O)C2O)c(=O)[nH]c1=O (configuration not stated) | > 912 µM | – | > 912 µM
39 | CC(C)C(NC(=O)OC(C)(C)C)C(=O)N1CC[C@@H](O)[C@H]1C(O)CC(=O)OC(C)(C)C (some centres not stated) | > 200 µM | – | > 200 µM
40 | O=S1(=O)OCCOS(=O)(=O)C1I | > 759 µM | – | 132 µM
41 | N#CCCN(CCC#N)c1ccc(/C=C2\N=C(c3cc([N+](=O)[O-])ccc3Cl)N(NC(=O)CC(=O)Nc3ccccc3Cl)C2=O)cc1 | > 11 µM | – | > 11 µM
42 | Cc1cc(OC(F)(F)c2nc3ccccc3o2)cc(C)c1C | 25.1 µM | – | 26.9 µM
